The values below are quoted from earlier work in patent US20250258179A1, “Method for Estimating Meal Component Bioavailability” (The Texas A&M University System, priority 2024, published 2025).

In this data set the test system is critically ill patients. Particulars: recently shown.

In the case of `CC(C)(O)CC(=O)O` [HMB, hydroxy-methylbutyric acid], the protein breakdown entry is recorded as “reduction in protein breakdown”.
